Laboratory results: article PMC10319809, “Chronic UCN2 treatment desensitizes CRHR2 and improves insulin sensitivity” (Nature Communications, 2023)
Where “and” joins values, the source holds several entries; their conditions need not be identical. Equal entries are not always repeated. Where no end group is shown, it is not given here.

Experiments:
HA-tagged CRHR2a = target: T1, HA-tagged CRHR2a (Homo sapiens, UniProt Q13324); test: CRHR2 surface expression / internalization, confocal imaging of HEK293 cells with HA-tagged CRHR2a; type: cell-based; details: 100 nM UCN2, HEK cells with HA-tagged CRHR2a; n = 4
T1 construct: expressed in transfected cells; host or cells: HEK293 cells, transient transfection with pcDNA3.1(+) plasmid using Lipofectamine 3000
T1 sequence (Q13324 1-411): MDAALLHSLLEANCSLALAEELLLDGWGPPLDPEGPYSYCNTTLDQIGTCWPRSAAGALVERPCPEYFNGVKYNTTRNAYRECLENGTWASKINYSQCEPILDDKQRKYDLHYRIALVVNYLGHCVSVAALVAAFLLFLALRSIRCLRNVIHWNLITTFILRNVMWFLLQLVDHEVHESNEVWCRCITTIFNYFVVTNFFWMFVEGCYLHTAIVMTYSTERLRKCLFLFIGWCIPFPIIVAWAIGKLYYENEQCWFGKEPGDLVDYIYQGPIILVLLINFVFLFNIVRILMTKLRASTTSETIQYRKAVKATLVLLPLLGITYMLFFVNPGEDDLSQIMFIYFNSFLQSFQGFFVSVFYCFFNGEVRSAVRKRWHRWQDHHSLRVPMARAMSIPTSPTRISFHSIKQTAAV
Description: β-Arrestin recruitment can sometimes cause the internalization of the receptor to which it is recruited. To assess whether CRHR2 is internalized following UCN2 treatment, we quantified CRHR2 receptor surface expression using confocal imaging of HEK cells transiently transfected with a plasmid expressing a […] CRHR2a construct (Fig. S3). Cells were treated with saline or 100 nM (−7.0 log[M]) UCN2 and surface expression was determined by fluorescent anti-HA antibody-binding, with and without permeabilizing the cell.
HEK293 cells were plated at a density of 10,000 cells per well into tissue culture-treated clear bottomed, optical microscopy quality, 96 well plates (Perkin Elmer, PhenoPlate 96-well) and grown for 1 day to ~40–60% confluency. Twenty-four hours after plating, cells were transfected with 50 ng of pcDNA3.1(+) plasmid encoding a N-terminally tagged CRHR2α construct using Lipofectamine 3000 (Thermofisher) following manufacturing protocols. Twenty-four hours following transfection, agonists were then added for 30 min and cells were incubated at 37 °C. Prior to imaging, cells were washed once with PBS and fixed with ice-cold 4% paraformaldehyde in PBS for 15 min. After washing 3 times with PBS, cells were kept in the Alexa Fluor 647 anti-HA (1:2000 dilution, BioLegend cat# 682404) diluted in 5% normal goat serum in PBS. […]

male mice = test: Glucose tolerance test (oGTT / IPGTT), blood glucose; type: in vivo, mouse
Description: All metabolic tests were performed using standard protocols on male littermates (aged: 10–14 weeks). For glucose tolerance tests (GTTs), animals were fasted for 8 h with ad libitum access to water. Fasting glucose measurements were taken before […] oral glucose dose. Blood glucose measurements were taken via tail nick using the AlphaTRAK 2 Glucose Monitoring System (Zoetis, Parsippany-Troy Hills, NJ) at 10, 30, 60, and 120 min after dose. Blood was collected for insulin measurement in EDTA tubes (Becton, Dickinson and Company, Franklin Lakes, NJ) and centrifuged to collect plasma (2000 g for 10 min at 4 °C), which was stored at −80 °C until analysis at 10, 30, 60, and 120 min after dose. Insulin levels were measured using an Ultrasensitive Mouse Insulin ELISA (ALPCO, Salem, NH), according to manufacturer’s instructions. For insulin tolerance tests (ITTs), animals were fasted for 8 h and blood glucose was measured before (0 min) and at 30, 60, 90, and 120 min following IP injection of 0.75 IU/kg of insulin (Humulin R, Eli Lilly, Indianapolis, IN). […]

[1] = tested on: soleus and gastrocnemius muscle; test: In vivo [3H]2-deoxyglucose uptake in soleus and gastrocnemius muscle; set-up: species or system mouse; details: [3H]2DG; for 2DG Uptake, gastrocnemius muscle: individual animals (Fig. 2I); for 2DG Uptake, soleus muscle: individual animals (Fig. 2J)
Description: To determine 2-deoxy-glucose (2DG) uptake in soleus and gastrocnemius muscle, mice were fasted for 5 h and anaesthetized with isoflurane. […] 15 min following 2DG administration, blood was collected via intracardiac stick and soleus and gastrocnemius muscles were dissected and snap frozen in liquid nitrogen. Samples were stored at −80 C until processing. Blood was treated with BaOH2 and ZnSO4 and after centrifugation, radioactivity was determined via liquid scintillation counting (Tri-Carb 5110TR, PerkinElmer, Waltham, MA). Tissue was homogenized and mixed with water or BaOH2 and ZnSO4 to determine total and unphosphorylated 2DG content.

mice = test: Food intake studies; type: in vivo, mouse
Description: For acute studies, animals were singly housed and injected IP with saline or 1 mg/kg UCN2 (source). Food intake for the next 24 h was determined by measuring food weight in ceramic bowls within the cage. For the chronic studies, animals were singly housed and injected with Vehicle, EGFP.AAV, or UCN2.AAV. Food weight was measured in ceramic bowls every 24 h for 7 days.

[2] = UCN2 1 mg/kg IP +Insulin 0.75 IU/kg
[3] = UCN2 1 mg/kg IP +Veh (no insulin)

Substance: IVLSLDVPIGLLQILLEQARARAAREQATTNARILARVGHC-NH2 (C-terminus assumed) [UCN2, Urocortin 2]
- CRHR2 internalization / surface receptor expression (HA-tagged CRHR2a): increase of CRHR2 internalization and decreased surface receptor expression
- glucose tolerance after acute UCN2 in UCN2.AAV animals (male mice; UCN2.AAV animals injected acutely with UCN2): worsened glucose tolerance
- glucose tolerance in oGTT (male mice; oGTT twenty minutes after 1 mg/kg IP UCN2): glucose intolerance
- 2DG Uptake, gastrocnemius muscle [1, 2]: 17.97 µmol/g/h and 16.61 µmol/g/h and 11.65 µmol/g/h and 22.6 µmol/g/h and 21.1 µmol/g/h and 20.95 µmol/g/h and 16.15 µmol/g/h and 12.85 µmol/g/h
- 2DG Uptake, soleus muscle [1, 2]: 25.34 µmol/g/h and 15.14 µmol/g/h and 16.51 µmol/g/h and 20.54 µmol/g/h and 24.42 µmol/g/h and 24.35 µmol/g/h and 25.91 µmol/g/h and 18.85 µmol/g/h
- 2DG Uptake, gastrocnemius muscle [1, 3]: 2.37 µmol/g/h and 2.36 µmol/g/h and 2.81 µmol/g/h and 1.95 µmol/g/h and 2.97 µmol/g/h and 3.08 µmol/g/h and 2.83 µmol/g/h and 3.26 µmol/g/h
- 2DG Uptake, soleus muscle [1, 3]: 2.44 µmol/g/h and 2.26 µmol/g/h and 2.42 µmol/g/h and 2.39 µmol/g/h and 2.31 µmol/g/h and 2.62 µmol/g/h and 3.69 µmol/g/h
- Food Intake (mice; single IP dose 1 mg/kg UCN2, next 24 h, individual animals (Fig. 2K), 1 mg/kg): 0.27 g and 0.3 g and 0.24 g and 0.15 g and 0.38 g and 0.46 g and 0.59 g
- food intake following UCN2 dosing (mice; single dose 1 mg/kg IP): decrease in food intake
